Assay results published in US9796706B2, “Inhibitors of Jun N-terminal kinase” (IMAGO PHARMACEUTICALS, INC., priority 2009, dated 2017).

Columns and labels:
Type in all cases: biochemical
Conditions in all cases: procedures of Example 14 (TR-FRET)
JNK1 = JNK1 (Homo sapiens (Human), UniProt P45983); experiment: JNK1 TR-FRET kinase assay (Example 14)
In short: (§1)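 Two TR-FRET formats were used for each JNK isoform. In the direct one, preactivated aJNK phosphorylated EPIW-1 at about 1 mM final ATP (RT, 15 min). Both were EDTA-quenched and read by HTRF.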

JNK3 = JNK3 (Homo sapiens (Human), UniProt P53779); experiment: JNK3 TR-FRET kinase assay (Example 14)
In short: as §1

JNK2 = JNK2 (Homo sapiens (Human), UniProt P45984); experiment: JNK2 TR-FRET kinase assay (Example 14)
In short: as §1

Chain of JNK3 (P53779 whole entry, species assumed): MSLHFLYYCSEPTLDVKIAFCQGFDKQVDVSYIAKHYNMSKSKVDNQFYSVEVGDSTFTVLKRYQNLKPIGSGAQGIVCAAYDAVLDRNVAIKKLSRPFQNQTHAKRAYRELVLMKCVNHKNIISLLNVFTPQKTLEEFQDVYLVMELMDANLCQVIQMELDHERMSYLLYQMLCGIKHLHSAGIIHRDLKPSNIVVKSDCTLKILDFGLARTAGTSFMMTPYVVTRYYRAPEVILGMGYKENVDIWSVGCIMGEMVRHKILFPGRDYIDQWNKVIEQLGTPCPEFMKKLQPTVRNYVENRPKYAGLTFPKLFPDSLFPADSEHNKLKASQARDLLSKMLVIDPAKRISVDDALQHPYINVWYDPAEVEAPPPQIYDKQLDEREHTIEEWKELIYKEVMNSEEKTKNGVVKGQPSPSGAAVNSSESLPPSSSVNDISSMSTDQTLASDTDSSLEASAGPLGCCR
Chain of JNK1 (P45983 other isoform, or with tags, fused parts or gaps isoform P45983-2, species assumed): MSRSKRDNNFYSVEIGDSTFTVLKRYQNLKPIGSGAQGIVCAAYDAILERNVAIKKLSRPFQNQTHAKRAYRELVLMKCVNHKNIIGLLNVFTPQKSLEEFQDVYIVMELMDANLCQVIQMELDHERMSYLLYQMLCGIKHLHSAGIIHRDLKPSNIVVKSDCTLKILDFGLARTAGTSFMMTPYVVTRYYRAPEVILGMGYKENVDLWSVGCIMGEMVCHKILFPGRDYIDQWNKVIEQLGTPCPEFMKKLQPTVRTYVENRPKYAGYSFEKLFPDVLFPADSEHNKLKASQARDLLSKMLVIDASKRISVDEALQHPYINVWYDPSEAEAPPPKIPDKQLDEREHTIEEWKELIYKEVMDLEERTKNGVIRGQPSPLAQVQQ
Chain of JNK2 (P45984 whole entry, species assumed): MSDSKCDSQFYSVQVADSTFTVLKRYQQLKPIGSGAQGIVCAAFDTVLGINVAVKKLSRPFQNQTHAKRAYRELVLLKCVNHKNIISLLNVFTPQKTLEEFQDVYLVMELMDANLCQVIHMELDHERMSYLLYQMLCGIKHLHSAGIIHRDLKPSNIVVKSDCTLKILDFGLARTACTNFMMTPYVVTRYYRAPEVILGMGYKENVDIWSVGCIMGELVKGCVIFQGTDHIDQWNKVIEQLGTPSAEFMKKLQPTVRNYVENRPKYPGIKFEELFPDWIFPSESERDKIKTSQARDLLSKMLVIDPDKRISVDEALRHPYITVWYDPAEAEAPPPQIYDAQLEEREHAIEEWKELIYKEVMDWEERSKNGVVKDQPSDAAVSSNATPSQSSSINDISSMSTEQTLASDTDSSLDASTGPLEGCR

Row | Compound | IC50 (JNK1) [nM] | IC50 (JNK3) [nM] | IC50 (JNK2) [nM]
1 | O=C(Cc1cccc2cnccc12)Nc1scnc1-c1ncn[nH]1 [N-(4-(1H-1,2,4-triazol-5-yl)thiazol-5-yl)-2-(isoquinolin-5-yl)acetamide] | 100 to 10000 | 100 to 10000 | 100 to 10000
2 | Cn1cnc(-c2c(Br)csc2NC(=O)CN2C(=O)CCc3ncccc32)n1 [N-(4-bromo-3-(1-methyl-1H-1,2,4-triazol-3-yl)thiophen-2-yl)-2-(2-oxo-3,4-dihydro-1,5-naphthyridin-1(2H)-yl)acetamide] | < 100 | < 100 | < 100
3 | O=C(Cc1ccc2ccc(C(F)(F)F)nc2c1)Nc1scc(Br)c1-c1nc[nH]n1 [N-(4-bromo-3-(1H-1,2,4-triazol-3-yl)thiophen-2-yl)-2-(2-(trifluoromethyl)quinolin-7-yl)acetamide] | 100 to 10000 | 100 to 10000 | 100 to 10000
4 | O=C(Cc1cccc2ncc(C(F)(F)F)cc12)Nc1scc(Br)c1-c1nc[nH]n1 [N-(4-bromo-3-(1H-1,2,4-triazol-3-yl)thiophen-2-yl)-2-(3-(trifluoromethyl)quinolin-5-yl)acetamide] | < 100 | < 100 | 100 to 10000
5 | O=C(Cc1cccc2cc(C(F)(F)F)cnc12)Nc1scc(Br)c1-c1nc[nH]n1 [N-(4-bromo-3-(1H-1,2,4-triazol-3-yl)thiophen-2-yl)-2-(3-(trifluoromethyl)quinolin-8-yl)acetamide] | 100 to 10000 | 100 to 10000 | 100 to 10000
6 | O=C(Cc1cccc2ncc(F)cc12)Nc1scc(Br)c1-c1nc[nH]n1 [N-(4-bromo-3-(1H-1,2,4-triazol-3-yl)thiophen-2-yl)-2-(3-fluoroquinolin-5-yl)acetamide] | < 100 | < 100 | < 100
7 | O=C(Cc1cccc2cc(F)cnc12)Nc1scc(Br)c1-c1nc[nH]n1 [N-(4-bromo-3-(1H-1,2,4-triazol-3-yl)thiophen-2-yl)-2-(3-fluoroquinolin-8-yl)acetamide] | < 100 | 100 to 10000 | 100 to 10000
8 | O=C(Cn1c(=O)ccc2ncccc21)Nc1scc(Br)c1-c1ncn[nH]1 [N-(4-bromo-3-(1H-1,2,4-triazol-5-yl)thiophen-2-yl)-2-(2-oxo-1,5-naphthyridin-1(2H)-yl)acetamide] | < 100 | < 100 | < 100
9 | O=C(Cn1c(=O)ccc2cnccc21)Nc1scc(Br)c1-c1ncn[nH]1 [N-(4-bromo-3-(1H-1,2,4-triazol-5-yl)thiophen-2-yl)-2-(2-oxo-1,6-naphthyridin-1(2H)-yl)acetamide] | < 100 | < 100 | < 100
10 | O=C(CN1C(=O)CCc2ncccc21)Nc1scc(Br)c1-c1ncn[nH]1 [N-(4-bromo-3-(1H-1,2,4-triazol-5-yl)thiophen-2-yl)-2-(2-oxo-3,4-dihydro-1,5-naphthyridin-1(2H)-yl)acetamide] | < 100 | < 100 | < 100
11 | O=C(CN1C(=O)CCc2cnccc21)Nc1scc(Br)c1-c1ncn[nH]1 [N-(4-bromo-3-(1H-1,2,4-triazol-5-yl)thiophen-2-yl)-2-(2-oxo-3,4-dihydro-1,6-naphthyridin-1(2H)-yl)acetamide] | < 100 | < 100 | < 100
12 | O=C(CN1C(=O)CCc2ccccc21)Nc1scc(Br)c1-c1ncn[nH]1 [N-(4-bromo-3-(1H-1,2,4-triazol-5-yl)thiophen-2-yl)-2-(2-oxo-3,4-dihydroquinolin-1(2H)-yl)acetamide] | < 100 | < 100 | < 100
13 | O=C(Cn1c(=O)ccc2c(C(F)(F)F)cccc21)Nc1scc(Br)c1-c1ncn[nH]1 [N-(4-bromo-3-(1H-1,2,4-triazol-5-yl)thiophen-2-yl)-2-(2-oxo-5-(trifluoromethyl)quinolin-1(2H)-yl)acetamide] | < 100 | < 100 | 100 to 10000
14 | O=C(Cn1c(=O)ccc2cc(OC(F)(F)F)ccc21)Nc1scc(Br)c1-c1ncn[nH]1 [N-(4-bromo-3-(1H-1,2,4-triazol-5-yl)thiophen-2-yl)-2-(2-oxo-6-(trifluoromethoxy)quinolin-1(2H)-yl)acetamide] | < 100 | < 100 | < 100
15 | O=C(Cn1c(=O)ccc2nc(C(F)(F)F)ccc21)Nc1scc(Br)c1-c1ncn[nH]1 [N-(4-bromo-3-(1H-1,2,4-triazol-5-yl)thiophen-2-yl)-2-(2-oxo-6-(trifluoromethyl)-1,5-naphthyridin-1(2H)-yl)acetamide] | < 100 | < 100 | < 100
16 | O=C(CN1C(=O)CCc2cc(C(F)(F)F)ccc21)Nc1scc(Br)c1-c1ncn[nH]1 [N-(4-bromo-3-(1H-1,2,4-triazol-5-yl)thiophen-2-yl)-2-(2-oxo-6-(trifluoromethyl)-3,4-dihydroquinolin-1(2H)-yl)acetamide] | < 100 | < 100 | < 100

Row | Compound | IC50 (JNK1) [nM] | IC50 (JNK3) [nM] | IC50 (JNK2) [nM]
17 | O=C(Cn1c(=O)ccc2cc(C(F)(F)F)ccc21)Nc1scc(Br)c1-c1ncn[nH]1 [N-(4-bromo-3-(1H-1,2,4-triazol-5-yl)thiophen-2-yl)-2-(2-oxo-6-(trifluoromethyl)quinolin-1(2H)-yl)acetamide] | < 100 | < 100 | < 100
18 | O=C(Cn1c(=O)ccc2ccc(OC(F)(F)F)cc21)Nc1scc(Br)c1-c1ncn[nH]1 [N-(4-bromo-3-(1H-1,2,4-triazol-5-yl)thiophen-2-yl)-2-(2-oxo-7-(trifluoromethoxy)quinolin-1(2H)-yl)acetamide] | < 100 | < 100 | < 100
19 | O=C(Cn1c(=O)ccc2cnc(C(F)(F)F)cc21)Nc1scc(Br)c1-c1ncn[nH]1 [N-(4-bromo-3-(1H-1,2,4-triazol-5-yl)thiophen-2-yl)-2-(2-oxo-7-(trifluoromethyl)-1,6-naphthyridin-1(2H)-yl)acetamide] | < 100 | < 100 | < 100
20 | O=C(Cn1c(=O)ccc2ccc(C(F)(F)F)cc21)Nc1scc(Br)c1-c1ncn[nH]1 [N-(4-bromo-3-(1H-1,2,4-triazol-5-yl)thiophen-2-yl)-2-(2-oxo-7-(trifluoromethyl)quinolin-1(2H)-yl)acetamide] | < 100 | < 100 | < 100
21 | O=C(Cn1c(=O)ccc2c(F)cccc21)Nc1scc(Br)c1-c1ncn[nH]1 [N-(4-bromo-3-(1H-1,2,4-triazol-5-yl)thiophen-2-yl)-2-(5-fluoro-2-oxoquinolin-1(2H)-yl)acetamide] | < 100 | < 100 | < 100
22 | O=C(Cn1c(=O)ccn2nc(C(F)(F)F)cc12)Nc1scc(Br)c1-c1ncn[nH]1 [N-(4-bromo-3-(1H-1,2,4-triazol-5-yl)thiophen-2-yl)-2-(5-oxo-2-(trifluoromethyl)pyrazolo[1,5-a]pyrimidin-4(5H)-yl)acetamide] | < 100 | < 100 | < 100
23 | O=C(Cn1c(=O)ccn2nccc12)Nc1scc(Br)c1-c1ncn[nH]1 [N-(4-bromo-3-(1H-1,2,4-triazol-5-yl)thiophen-2-yl)-2-(5-oxopyrazolo[1,5-a]pyrimidin-4(5H)-yl)acetamide] | < 100 | < 100 | < 100
24 | O=C(Cn1c(=O)ccc2cc(F)c(F)cc21)Nc1scc(Br)c1-c1ncn[nH]1 [N-(4-bromo-3-(1H-1,2,4-triazol-5-yl)thiophen-2-yl)-2-(6,7-difluoro-2-oxoquinolin-1(2H)-yl)acetamide] | < 100 | < 100 | < 100
25 | O=C(Cn1c(=O)ccc2cc(Cl)ccc21)Nc1scc(Br)c1-c1ncn[nH]1 [N-(4-bromo-3-(1H-1,2,4-triazol-5-yl)thiophen-2-yl)-2-(6-chloro-2-oxoquinolin-1(2H)-yl)acetamide] | < 100 | < 100 | < 100
26 | N#Cc1ccc2c(ccc(=O)n2CC(=O)Nc2scc(Br)c2-c2ncn[nH]2)c1 [N-(4-bromo-3-(1H-1,2,4-triazol-5-yl)thiophen-2-yl)-2-(6-cyano-2-oxoquinolin-1(2H)-yl)acetamide] | < 100 | < 100 | < 100
27 | C#Cc1ccc2c(ccc(=O)n2CC(=O)Nc2scc(Br)c2-c2ncn[nH]2)c1 [N-(4-bromo-3-(1H-1,2,4-triazol-5-yl)thiophen-2-yl)-2-(6-ethynyl-2-oxoquinolin-1(2H)-yl)acetamide] | < 100 | < 100 | < 100
28 | O=C(CN1C(=O)CCc2cc(F)ccc21)Nc1scc(Br)c1-c1ncn[nH]1 [N-(4-bromo-3-(1H-1,2,4-triazol-5-yl)thiophen-2-yl)-2-(6-fluoro-2-oxo-3,4-dihydroquinolin-1(2H)-yl)acetamide] | < 100 | < 100 | < 100
29 | O=C(Cn1c(=O)ccc2cc(F)ccc21)Nc1scc(Br)c1-c1ncn[nH]1 [N-(4-bromo-3-(1H-1,2,4-triazol-5-yl)thiophen-2-yl)-2-(6-fluoro-2-oxoquinolin-1(2H)-yl)acetamide] | < 100 | < 100 | < 100
30 | O=C(Cc1c(F)ccc2ncccc12)Nc1scc(Br)c1-c1ncn[nH]1 [N-(4-bromo-3-(1H-1,2,4-triazol-5-yl)thiophen-2-yl)-2-(6-fluoroquinolin-5-yl)acetamide] | < 100 | < 100 | < 100
31 | O=C(Cc1cc2ncccc2cc1F)Nc1scc(Br)c1-c1ncn[nH]1 [N-(4-bromo-3-(1H-1,2,4-triazol-5-yl)thiophen-2-yl)-2-(6-fluoroquinolin-7-yl)acetamide] | < 100 | 100 to 10000 | 100 to 10000
32 | Cc1cn2c(CC(=O)Nc3scc(Br)c3-c3ncn[nH]3)csc2n1 [N-(4-bromo-3-(1H-1,2,4-triazol-5-yl)thiophen-2-yl)-2-(6-methylimidazo[2,1-b]thiazol-3-yl)acetamide] | < 100 | 100 to 10000 | 100 to 10000
